Measurements published in patent US11173145B2, “Compounds useful as inhibitors of indoleamine 2,3-dioxygenase and/or tryptophan dioxygenase” (Board of Regents, The University of Texas System, priority 2017, dated 2021).

Columns and labels:
IDO1 = biological target: T1, IDO1 (Homo sapiens, UniProt P14902); experiment: IDO1 cell-based assay (HeLa cells, IFNgamma-induced, N-formylkynurenine/L-tryptophan by RFMS); conditions: 10 ng/mL IFNgamma, 24 hours
T1 construct: endogenous in cells; host or cells: HeLa cells (ATCC), IFNgamma-induced
T1 sequence (P14902 whole entry): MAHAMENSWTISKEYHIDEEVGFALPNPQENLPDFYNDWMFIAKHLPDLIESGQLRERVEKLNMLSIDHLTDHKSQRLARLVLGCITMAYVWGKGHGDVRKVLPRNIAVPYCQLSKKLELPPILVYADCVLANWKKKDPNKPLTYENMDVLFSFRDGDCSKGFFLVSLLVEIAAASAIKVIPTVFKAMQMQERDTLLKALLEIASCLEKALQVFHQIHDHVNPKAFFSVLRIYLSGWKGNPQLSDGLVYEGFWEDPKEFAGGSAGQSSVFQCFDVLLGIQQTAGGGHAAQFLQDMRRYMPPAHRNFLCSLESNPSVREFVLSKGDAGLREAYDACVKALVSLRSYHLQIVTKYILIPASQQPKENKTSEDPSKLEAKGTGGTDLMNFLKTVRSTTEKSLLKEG
Method in brief: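 HeLa cells stimulated with 10 ng/mL IFNgamma and exposed to compound (0.5% DMSO final) for 24 h at 37 °C. Conditioned media deproteinized, then N-formylkynurenine and L-tryptophan quantified by RapidFire MS with deuterated tryptophan internal standard; IC50 by curve fitting. Viability checked by CellTiter-Glo.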

mouse IDO1 = biological target: T2, mouse IDO1 (Mus musculus, UniProt P28776); experiment: Mouse IDO1 cell-based assay (PANC02 cells, mouse IFNgamma-induced, N-formylkynurenine/L-tryptophan by RFMS); conditions: 30 ng/mL mouse IFNgamma, 48 hours
T2 construct: The murine PANC02 pancreatic ductal adenocarcinoma cell line was routinely maintained in DMEM media; endogenous in cells; host or cells: PANC02 murine pancreatic ductal adenocarcinoma cells, induced with mouse IFNgamma
T2 sequence (P28776 whole entry): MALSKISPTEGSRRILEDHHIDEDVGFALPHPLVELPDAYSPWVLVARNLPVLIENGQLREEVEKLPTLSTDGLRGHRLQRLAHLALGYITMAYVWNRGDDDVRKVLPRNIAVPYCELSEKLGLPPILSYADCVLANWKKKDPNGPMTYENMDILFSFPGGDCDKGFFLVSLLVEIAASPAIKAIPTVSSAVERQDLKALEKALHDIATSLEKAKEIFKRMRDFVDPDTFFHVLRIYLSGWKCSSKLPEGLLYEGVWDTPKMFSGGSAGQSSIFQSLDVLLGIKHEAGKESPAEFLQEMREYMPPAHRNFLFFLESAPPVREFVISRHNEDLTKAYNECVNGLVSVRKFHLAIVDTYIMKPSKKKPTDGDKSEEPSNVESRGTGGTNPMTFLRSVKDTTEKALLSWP
Description: The murine PANC02 pancreatic ductal adenocarcinoma cell line was routinely maintained in DMEM media containing 10% FBS. Cells (3,000/well) were seeded onto a 384 well plate in 50 μl of media and incubated at 37° C., 5% CO2 overnight. Cell media was aspirated, fresh media containing 30 ng/mL mouse IFNgamma (Gibco Life Technologies, cat #PMC4031) was added, and cells were incubated in absence or presence of various concentrations of compounds (final 0.5% DMSO) for 48 hours at 37° C., 5% CO2. Aliquots of the cell conditioned media was removed from the cell plate, and mixed with equal volume of 200 mM ZnSO4 to precipitate media containing protein. Two volumes of acetonitrile were added by mixing, and samples were then centrifuged at 2250G for 20 minutes at 4° C. Aliquots of the supernatant were diluted 1:10 in 0.1% formic acid containing 3 μM of deuterated Tryptophan as an internal standard.
Samples were analyzed via RFMS to quantify N-Formyl Kynurenine (AUC) and L-tryptophan (AUC). A C18 cartridge was used with mobile phases of 0.1% Formic Acid and 80% ACN/0.1% Formic Acid under isocratic conditions. Dose-response curves were analyzed using IC50 regression curve fitting (GeneData Screener). Curves were plotted as percent of control and normalized by high controls without inhibitor (100%), and low controls (0%) containing 1 μM of epacadostat. Cell viability was also assessed using the Cell Titer Glo Kit (Promega) following manufacture recommendation.

Compound | IC50 (IDO1) [nM] | IC50 (mouse IDO1) [nM]
C[C@H](NC(=O)c1ccc(C#N)cc1)[C@H]1[C@@H]2C[C@@H](Oc3ncnc4ccc(F)cc34)C[C@@H]21 [Compound 130, 4-cyano-N-((R)-1-((1R,3S,5S,6r)-3-((6-fluoroquinazolin-4-yl)oxy)bicyclo[3.1.0]hexan-6-yl)ethyl)benzamide] | < 200 | < 500
CCC(NC(=O)c1ccc(Cl)cc1)[C@H]1[C@@H]2C[C@@H](NC(=O)c3ncc(F)cc3F)C[C@@H]21 (stereo partly drawn) [Compound 171, N-((1R,3s,5S,6r)-6-(1-(4-chlorobenzamido)propyl)bicyclo[3.1.0]hexan-3-yl)-3,5-difluoropicolinamide] | < 200 | 500 to 2000
CCC(NC(=O)c1ccc(Cl)cc1)[C@H]1[C@@H]2C[C@@H](n3ncc(-c4ccccc4)n3)C[C@@H]21 (stereo partly drawn) [Compound 204, 4-chloro-N-(1-((1R,3s,5S,6r)-3-(4-phenyl-2H-1,2,3-triazol-2-yl)bicyclo[3.1.0]hexan-6-yl)propyl)benzamide] | < 200 | 500 to 2000
CCC(NC(=O)c1ccc(Cl)cc1)[C@H]1[C@@H]2C[C@@H](N3Cc4ccccc4C3=O)C[C@@H]21 (stereo partly drawn) [Compound 175, 4-chloro-N-(1-((1R,3s,5S,6r)-3-(1-oxoisoindolin-2-yl)bicyclo[3.1.0]hexan-6-yl)propyl)benzamide] | < 200 | 500 to 2000
CCC(NC(=O)c1ccc(Cl)cc1)[C@H]1[C@@H]2C[C@H](n3nncc3C3CC3)C[C@@H]21 (stereo partly drawn) [Compound 191, 4-chloro-N-(1-((1R,3r,5S,6r)-3-(5-cyclopropyl-1H-1,2,3-triazol-1-yl)bicyclo[3.1.0]hexan-6-yl)propyl)benzamide] | 200 to 2000 | 500 to 2000
CCC(NC(=O)c1ccc(Cl)cc1)[C@H]1[C@@H]2C[C@@H](NC(=O)c3nccc(C(F)(F)F)c3Cl)C[C@@H]21 (stereo partly drawn) [Compound 158, 3-chloro-N-((1R,3s,5S,6r)-6-(1-(4-chlorobenzamido)propyl)bicyclo[3.1.0]hexan-3-yl)-4-(trifluoromethyl)picolinamide] | < 200 | 500 to 2000
CCC(NC(=O)c1ccc(Cl)cc1)[C@H]1[C@@H]2C[C@@H](n3ccc4ncnc-4c3)C[C@@H]21 (stereo partly drawn) [Compound 198, N-(1-((1R,3s,5S,6r)-3-(5H-imidazo[4,5-c]pyridin-5-yl)bicyclo[3.1.0]hexan-6-yl)propyl)-4-chlorobenzamide] | < 200 | 500 to 2000
CCC(NC(=O)c1ccc(Cl)cc1)[C@H]1[C@@H]2C[C@@H](Oc3nc4cc(F)ccc4[nH]3)C[C@@H]21 (stereo partly drawn) [Compound 193, 4-chloro-N-(1-((1R,3s,5S,6r)-3-((6-fluoro-1H-benzo[d]imidazol-2-yl)oxy)bicyclo[3.1.0]hexan-6-yl)propyl)benzamide] | 200 to 2000 | 500 to 2000
CCC(NC(=O)c1ccc(Cl)cc1)[C@H]1[C@@H]2C[C@@H](n3cccc4ncnc3-4)C[C@@H]21 (stereo partly drawn) [Compound 182, N-(1-((1R,3s,5S,6r)-3-(4H-imidazo[4,5-b]pyridin-4-yl)bicyclo[3.1.0]hexan-6-yl)propyl)-4-chlorobenzamide] | 200 to 2000 | > 5000
CCC(NC(=O)c1ccc(Cl)cc1)[C@H]1[C@@H]2C[C@@H](NC(=O)c3ncccc3F)C[C@@H]21 (stereo partly drawn) [Compound 188, N-((1R,3s,5S,6r)-6-(1-(4-chlorobenzamido)propyl)bicyclo[3.1.0]hexan-3-yl)-3-fluoropicolinamide] | < 200 | 500 to 2000
CCOC(=O)C(N[C@@H]1C[C@@H]2[C@H](C1)[C@H]2C(CC)NC(=O)c1ccc(Cl)cc1)c1ccccc1 (stereo partly drawn) [Compound 190, ethyl 2-(((1R,3s,5S,6r)-6-(1-(4-chlorobenzamido)propyl)bicyclo[3.1.0]hexan-3-yl)amino)-2-phenylacetate] | 200 to 2000 | > 5000
CCC(NC(=O)c1ccc(Cl)cc1)[C@H]1[C@@H]2C[C@@H](n3ncc4cccc(F)c43)C[C@@H]21 (stereo partly drawn) [Compound 206, 4-chloro-N-(1-((1R,3s,5S,6r)-3-(7-fluoro-1H-indazol-1-yl)bicyclo[3.1.0]hexan-6-yl)propyl)benzamide] | < 200 | 500 to 2000

Now from value to molecule:

IC50 (IDO1) [nM] | IC50 (mouse IDO1) [nM] | Compound
< 200 | < 500 | CCC(NC(=O)c1ccc(Cl)cc1)[C@H]1[C@@H]2C[C@@H](n3ncc4cc(F)ccc43)C[C@@H]21 (stereo partly drawn) [Compound 208, 4-chloro-N-(1-((1R,3s,5S,6r)-3-(5-fluoro-1H-indazol-1-yl)bicyclo[3.1.0]hexan-6-yl)propyl)benzamide]
< 200 | < 500 | CCC(NC(=O)c1ccc(Cl)cc1)[C@H]1[C@@H]2C[C@@H](Nc3ccccn3)C[C@@H]21 (stereo partly drawn) [Compound 226, 4-chloro-N-(1-((1R,3s,5S,6r)-3-(pyridin-2-ylamino)bicyclo[3.1.0]hexan-6-yl)propyl)benzamide]
> 5000 | > 5000 | CCC(NC(=O)c1ccc(Cl)cc1)[C@H]1[C@@H]2C[C@@H](NC(C(=O)O)c3ccccc3)C[C@@H]21 (stereo partly drawn) [Compound 217, 2-(((1R,3s,5S,6r)-6-(1-(4-chlorobenzamido)propyl)bicyclo[3.1.0]hexan-3-yl)amino)-2-phenylacetic acid]
2000 to 5000 | 2000 to 5000 | CCC(NC(=O)c1ccc(Cl)cc1)[C@H]1[C@@H]2C[C@@H](C(C(=O)O)c3ccccc3)C[C@@H]21 (stereo partly drawn) [Compound 228, 2-((1R,3s, 5S, 6r)-6-(1-(4-chlorobenzamido)propyl)bicyclo[3.1.0]hexan-3-yl)-2-phenylacetic acid]
< 200 | 500 to 2000 | CCC(NC(=O)c1ccc(Cl)cc1)[C@H]1[C@@H]2C[C@@H](NC(=O)c3ncccc3Cl)C[C@@H]21 (stereo partly drawn) [Compound 218, 3-chloro-N-((1R,3s,5S,6r)-6-(1-(4-chlorobenzamido)propyl)bicyclo[3.1.0]hexan-3-yl)picolinamide]
200 to 2000 | 500 to 2000 | CCC(NC(=O)c1ccc(Cl)cc1)[C@H]1[C@@H]2C[C@@H](Nc3cc(F)cc(F)c3[N+](=O)[O-])C[C@@H]21 (stereo partly drawn) [Compound 243, 4-chloro-N-(1-((1R,3s,5S,6r)-3-((3,5-difluoro-2-nitrophenyl)amino)bicyclo[3.1.0]hexan-6-yl)propyl)benzamide]
< 200 | 500 to 2000 | CCC(NC(=O)c1ccc(Cl)cc1)[C@H]1[C@@H]2C[C@@H](n3ncc4cccnc43)C[C@@H]21 (stereo partly drawn) [Compound 212, N-(1-((1R,3s,5S,6r)-3-(1H-pyrazolo[3,4-b]pyridin-1-yl)bicyclo[3.1.0]hexan-6-yl)propyl)-4-chlorobenzamide]
< 200 | < 500 | CCOCc1cn([C@H]2C[C@@H]3[C@H](C2)[C@H]3C(CC)NC(=O)c2ccc(Cl)cc2)nn1 (stereo partly drawn) [Compound 216, 4-chloro-N-(1-((1R,3r,5S,6r)-3-(4-(ethoxymethyl)-1H-1,2,3-triazol-1-yl)bicyclo[3.1.0]hexan-6-yl)propyl)benzamide]
> 5000 | > 5000 | CCC(NC(=O)c1ccc(Cl)cc1)[C@H]1[C@@H]2C[C@@H](n3cc(NC(C)=O)nn3)C[C@@H]21 (stereo partly drawn) [Compound 256, N-(1-((1R,3s,5S,6r)-3-(4-acetamido-1H-1,2,3-triazol-1-yl)bicyclo[3.1.0]hexan-6-yl)propyl)-4-chlorobenzamide]
2000 to 5000 | > 5000 | CCC(NC(=O)c1ccc(Cl)cc1)[C@H]1[C@@H]2C[C@@H](n3cc(C4CN(C(=O)OC(C)(C)C)C4)nn3)C[C@@H]21 (stereo partly drawn) [Compound 233, tert-butyl 3-(1-((1R,3s,5S,6r)-6-(1-(4-chlorobenzamido)propyl)bicyclo[3.1.0]hexan-3-yl)-1H-1,2,3-triazol-4-yl)azetidine-1-carboxylate]
< 200 | < 500 | CCC(NC(=O)c1ccc(Cl)cc1)[C@H]1[C@@H]2C[C@@H](n3ccc4cc(F)ccc43)C[C@@H]21 (stereo partly drawn) [Compound 229, 4-chloro-N-(1-((1R,3s,5S,6r)-3-(5-fluoro-1H-indol-1-yl)bicyclo[3.1.0]hexan-6-yl)propyl)benzamide]
200 to 2000 | 500 to 2000 | CCC(NC(=O)c1ccc(Cl)cc1)[C@H]1[C@@H]2C[C@H](NC(=O)c3nccc(C(F)(F)F)c3Cl)C[C@@H]21 (stereo partly drawn) [Compound 222, 3-chloro-N-((1R,3r,5S,6r)-6-(1-(4-chlorobenzamido)propyl)bicyclo[3.1.0]hexan-3-yl)-4-(trifluoromethyl)picolinamide]
< 200 | 500 to 2000 | CCC(NC(=O)c1ccc(Cl)cc1)[C@H]1[C@@H]2C[C@@H](Nc3c([N+](=O)[O-])ccc(F)c3F)C[C@@H]21 (stereo partly drawn) [Compound 244, 4-chloro-N-(1-((1R,3s,5S,6r)-3-((2,3-difluoro-6-nitrophenyl)amino)bicyclo[3.1.0]hexan-6-yl)propyl)benzamide]
